In patent publication US10695337B2, “Piperidin-4-yl azetidine derivatives as JAK1 inhibitors” (Incyte Corporation, priority 2010, dated 2020):

Molecular target: human JAK1 (a.a. 837-1142)
Assay: In vitro JAK kinase assay (HTRF, phosphorylation of a biotinylated peptide), JAK1
Assay type: biochemical
Conditions: measured at 1 mM ATP; JAK2 IC50 / JAK1 IC50
In short: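 Phosphorylation of a biotinylated peptide by purified His-tagged JAK catalytic domains (insect-cell baculovirus expression) ran 1 hr at room temperature. After stopping with EDTA, Eu-Py20 and SA-APC were bound for 40 minutes and HTRF measured.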

SMILES	IC50 Ratio JAK2/JAK1
N#CCC1(n2cc(-c3ncnc4[nH]ccc34)cn2)CN(C2CCN(C(=O)c3ccc(-c4cccc5ccncc45)c(F)c3)CC2)C1 [Example 131, {1-[1-(3-fluoro-4-isoquinolin-8-ylbenzoyl)piperidin-4-yl]-3-[4-(7H-pyrrolo[2,3-d]pyrimidin-4-yl)-1H-pyrazol-1-yl]azetidin-3-yl} acetonitrile]	8.1
N#CCC1(n2cc(-c3ncnc4[nH]ccc34)cn2)CN(C2CCN(C(=O)c3ccc(-c4ccc5ccncc5c4)c(F)c3)CC2)C1 [Example 133, {1-[1-(3-fluoro-4-isoquinolin-7-ylbenzoyl)piperidin-4-yl]-3-[4-(7H-pyrrolo[2,3-d]pyrimidin-4-yl)-1H-pyrazol-1-yl]azetidin-3-yl} acetonitrile]	7.9
N#CCC1(n2cc(-c3ncnc4[nH]ccc34)cn2)CN(C2CCN(C(=O)c3ccc(-c4nc5ccccc5o4)c(F)c3)CC2)C1 [Example 137, {1-{1-[4-(1,3-benzoxazol-2-yl)-3-fluorobenzoyl]piperidin-4-yl}-3-[4-(7H-pyrrolo[2,3-d]pyrimidin-4-yl)-1H-pyrazol-1-yl]azetidin-3-yl} acetonitrile]	6.0
N#CCC1(n2cc(-c3ncnc4[nH]ccc34)cn2)CN(C2CC3CCC(C2)N3C(=O)c2ccc(F)c(F)c2)C1 (centres unmarked) [Example 139, {1-[8-(3,4-difluorobenzoyl)-8-azabicyclo[3.2.1]oct-3-yl]-3-[4-(7H-pyrrolo[2,3-d]pyrimidin-4-yl)-1H-pyrazol-1-yl]azetidin-3-yl}acetonitrile]	4.4
N#CCC1(n2cc(-c3ncnc4[nH]ccc34)cn2)CN(C2CC3CCC(C2)N3C(=O)c2ccc(C#N)c(F)c2)C1 (centres unmarked) [Example 140, 4-[(3-{3-(cyanomethyl)-3-[4-(7H-pyrrolo[2,3-d]pyrimidin-4-yl)-1H-pyrazol-1-yl]azetidin-1-yl}-8-azabicyclo[3.2.1]oct-8-yl)carbonyl]-2-fluorobenzonitrile]	5.4
N#CCC1(n2cc(-c3ncnc4[nH]ccc34)cn2)CN(C2CC3CCC(C2)N3C(=O)c2ccc(Cl)c(F)c2)C1 (centres unmarked) [Example 141, {1-[8-(4-chloro-3-fluorobenzoyl)-8-azabicyclo[3.2.1]oct-3-yl]-3-[4-(7H-pyrrolo[2,3-d]pyrimidin-4-yl)-1H-pyrazol-1-yl]azetidin-3-yl}acetonitrile]	6.2
N#CCC1(n2cc(-c3ncnc4[nH]ccc34)cn2)CN(C2CC3CCC(C2)N3C(=O)c2ccnc(C(F)(F)F)c2F)C1 (centres unmarked) [Example 142, {1-{8-[3-fluoro-2-(trifluoromethyl)isonicotinoyl]-8-azabicyclo[3.2.1]oct-3-yl}-3-[4-(7H-pyrrolo[2,3-d]pyrimidin-4-yl)-1H-pyrazol-1-yl]azetidin-3-yl}acetonitrile]	7.4
N#CCC1(n2cc(-c3ncnc4[nH]ccc34)cn2)CN(C2CC3CCC(C2)N3C(=O)c2ccc(C(F)(F)F)nc2)C1 (centres unmarked) [Example 143, [3-[4-(7H-pyrrolo[2,3-d]pyrimidin-4-yl)-1H-pyrazol-1-yl]-1-(8-{[6-(trifluoromethyl)pyridin-3-yl]carbonyl}-8-azabicyclo[3.2.1]oct-3-yl)azetidin-3-yl]acetonitrile]	3.5
CC1CC(N2CC(CC#N)(n3cc(-c4ncnc5[nH]ccc45)cn3)C2)CCN1C(=O)C1CCC(F)(F)CC1 (centres unmarked) [Example 151, {1-{1-[(4,4-difluorocyclohexyl)carbonyl]-2-methylpiperidin-4-yl}-3-[4-(7H-pyrrolo[2,3-d]pyrimidin-4-yl)-1H-pyrazol-1-yl]azetidin-3-yl}acetonitrile]	5.8
N#CCC1(n2cc(-c3ncnc4[nH]ccc34)cn2)CN(C2CCN(C(=O)Nc3ccccc3OC(F)(F)F)CC2)C1 [Example 158, 4-{3-(cyanomethyl)-3-[4-(7H-pyrrolo[2,3-d]pyrimidin-4-yl)-1H-pyrazol-1-yl]azetidin-1-yl}-N-[2-(trifluoromethoxy)phenyl]piperidine-1-carboxamide]	12.0
N#CCC1(n2cc(-c3ncnc4[nH]ccc34)cn2)CN(C2CCN(C(=O)Nc3cc(F)cc(F)c3F)CC2)C1 [Example 173, 4-{3-(cyanomethyl)-3-[4-(7H-pyrrolo[2,3-d]pyrimidin-4-yl)-1H-pyrazol-1-yl]azetidin-1-yl}-N-(2,3,5-trifluorophenyl)piperidine-1-carboxamide]	5.7
N#CCC1(n2cc(-c3ncnc4[nH]ccc34)cn2)CN(C2CCN(C(=O)Nc3cc(F)ccc3F)CC2)C1 [Example 174, 4-{3-(cyanomethyl)-3-[4-(7H-pyrrolo[2,3-d]pyrimidin-4-yl)-1H-pyrazol-1-yl]azetidin-1-yl}-N-(2,5-difluorophenyl) piperidine-1-carboxamide]	7.1

Further lines, results first:

IC50 Ratio JAK2/JAK1	SMILES
7.1	N#CCC1(n2cc(-c3ncnc4[nH]ccc34)cn2)CN(C2CCN(C(=O)c3ccc(-c4cccc5cnccc45)c(F)c3)CC2)C1 [Example 130, {1-[1-(3-fluoro-4-isoquinolin-5-ylbenzoyl)piperidin-4-yl]-3-[4-(7H-pyrrolo[2,3-d]pyrimidin-4-yl)-1H-pyrazol-1-yl]azetidin-3-yl}acetonitrile]
6.7	N#CCC1(n2cc(-c3ncnc4[nH]ccc34)cn2)CN(C2CCN(C(=O)c3ccc(-c4ccc5cccnc5c4)c(F)c3)CC2)C1 [Example 134, {1-[1-(3-fluoro-4-quinolin-7-ylbenzoyl)piperidin-4-yl]-3-[4-(7H-pyrrolo[2,3-d]pyrimidin-4-yl)-1H-pyrazol-1-yl]azetidin-3-yl} acetonitrile]
7.1	N#CCC1(n2cc(-c3ncnc4[nH]ccc34)cn2)CN(C2CCN(C(=O)c3ccc(-c4ccc5nccn5c4)c(F)c3)CC2)C1 [Example 135, {1-[1-(3-fluoro-4-imidazo[1,2-a]pyridin-6-ylbenzoyl)piperidin-4-yl]-3-[4-(7H-pyrrolo[2,3-d]pyrimidin-4-yl)-1H-pyrazol-1-yl]azetidin-3-yl} acetonitrile]
5.6	N#CCC1(n2cc(-c3ncnc4[nH]ccc34)cn2)CN(C2CCN(C(=O)c3ccc(-c4nc5ccccc5o4)cc3)CC2)C1 [Example 136, {1-{1-[4-(1,3-benzoxazol-2-yl)benzoyl]piperidin-4-yl}-3-[4-(7H-pyrrolo[2,3-d]pyrimidin-4-yl)-1H-pyrazol-1-yl]azetidin-3-yl}acetonitrile]
4.0	CC1(N2CC(CC#N)(n3cc(-c4ncnc5[nH]ccc45)cn3)C2)CCN(C(=O)c2cccc(F)c2)CC1 [Example 152, {1-[1-(3-Fluorobenzoyl)-4-methylpiperidin-4-yl]-3-[4-(7H-pyrrolo[2,3-d]pyrimidin-4-yl)-1H-pyrazol-1-yl]azetidin-3-yl}acetonitrile]
15.0	N#CCC1(n2cc(-c3ncnc4[nH]ccc34)cn2)CN(C2CCN(C(=O)Nc3cscc3Br)CC2)C1 [Example 159, N-(4-bromo-3-thienyl)-4-{3-(cyanomethyl)-3-[4-(7H-pyrrolo[2,3-d]pyrimidin-4-yl)-1H-pyrazol-1-yl]azetidin-1-yl}piperidine-1-carboxamide]
12.0	N#CCC1(n2cc(-c3ncnc4[nH]ccc34)cn2)CN(C2CCN(C(=O)Nc3ccccc3Cl)CC2)C1 [Example 163, N-(2-chlorophenyl)-4-{3-(cyanomethyl)-3-[4-(7H-pyrrolo[2,3-d]pyrimidin-4-yl)-1H-pyrazol-1-yl]azetidin-1-yl}piperidine-1-carboxamide]
5.5	N#CCC1(n2cc(-c3ncnc4[nH]ccc34)cn2)CN(C2CCN(C(=O)Nc3cccc(C(F)(F)F)c3)CC2)C1 [Example 166, 4-{3-(cyanomethyl)-3-[4-(7H-pyrrolo[2,3-d]pyrimidin-4-yl)-1H-pyrazol-1-yl]azetidin-1-yl}-N-[3-(trifluoromethyl)phenyl]piperidine-1-carboxamide]
2.0	N#CCC1(n2cc(-c3ncnc4[nH]ccc34)cn2)CN(C2CCN(C(=O)Nc3ccc(C(F)(F)F)cc3)CC2)C1 [Example 167, 4-{3-(cyanomethyl)-3-[4-(7H-pyrrolo[2,3-d]pyrimidin-4-yl)-1H-pyrazol-1-yl]azetidin-1-yl}-N-[4-(trifluoromethyl)phenyl]piperidine-1-carboxamide]
2.6	Cc1ccc(Cl)cc1NC(=O)N1CCC(N2CC(CC#N)(n3cc(-c4ncnc5[nH]ccc45)cn3)C2)CC1 [Example 168, N-(5-chloro-2-methylphenyl)-4-{3-(cyanomethyl)-3-[4-(7H-pyrrolo[2,3-d]pyrimidin-4-yl)-1H-pyrazol-1-yl]azetidin-1-yl}piperidine-1-carboxamide]
5.5	N#CCC1(n2cc(-c3ncnc4[nH]ccc34)cn2)CN(C2CCN(C(=O)Nc3ccccc3F)CC2)C1 [Example 169, 4-{3-(cyanomethyl)-3-[4-(7H-pyrrolo[2,3-d]pyrimidin-4-yl)-1H-pyrazol-1-yl]azetidin-1-yl}-N-(2-fluorophenyl)piperidine-1-carboxamide]
6.9	N#CCC1(n2cc(-c3ncnc4[nH]ccc34)cn2)CN(C2CCN(C(=O)Nc3cccc(C(F)(F)F)c3F)CC2)C1 [Example 170, 4-{3-(cyanomethyl)-3-[4-(7H-pyrrolo[2,3-d]pyrimidin-4-yl)-1H-pyrazol-1-yl]azetidin-1-yl}-N-[2-fluoro-3-(trifluoromethyl)phenyl]piperidine-1-carboxamide]
7.5	N#CCC1(n2cc(-c3ncnc4[nH]ccc34)cn2)CN(C2CCN(C(=O)Nc3ccc(F)cc3F)CC2)C1 [Example 171, 4-{3-(cyanomethyl)-3-[4-(7H-pyrrolo[2,3-d]pyrimidin-4-yl)-1H-pyrazol-1-yl]azetidin-1-yl}-N-(2,4-difluorophenyl) piperidine-1-carboxamide]
3.6	N#CCC1(n2cc(-c3ncnc4[nH]ccc34)cn2)CN(C2CCN(C(=O)Nc3cc(F)cc(F)c3)CC2)C1 [Example 175, 4-{3-(cyanomethyl)-3-[4-(7H-pyrrolo[2,3-d]pyrimidin-4-yl)-1H-pyrazol-1-yl]azetidin-1-yl}-N-(3,5-difluorophenyl) piperidine-1-carboxamide]
